One test has as its system M-NSF-60. The test can be described thus: Proliferation of M-NSF-60 cells with M-CSF (CCK-8, 72 hours). Format: cell-based, mouse. The following applies: for GI50: Mus musculus, read-out: M-NSF-60 (GI50/μM). As for the experimental part: (§1) The incubated cells were detected by CCK-8 (purchased from MedChem Express, China) cell viability detection kit (CCK-8 can be reduced by dehydrogenases in living cells to a highly water-soluble yellow formazan product, and the amount of the generated formazan product is proportional to the number of living cells). The number of living cells was quantified by a microplate reader, and the GI50 for each compound was calculated (the results are shown in Table 2).

For a further test, the target named is T1, TEL-CSF1R-BaF3 (Homo sapiens, UniProt P07333).
T1 construct: expressed in transfected cells; host or cells: mouse BaF3 cells (ATCC), retroviral transduction with MSCV-Puro vector, IL-3 withdrawn; the other entry of the earlier key: ETV6 (P41212, Transcription factor ETV6)
T1 sequence (P07333 582-910 limits assumed): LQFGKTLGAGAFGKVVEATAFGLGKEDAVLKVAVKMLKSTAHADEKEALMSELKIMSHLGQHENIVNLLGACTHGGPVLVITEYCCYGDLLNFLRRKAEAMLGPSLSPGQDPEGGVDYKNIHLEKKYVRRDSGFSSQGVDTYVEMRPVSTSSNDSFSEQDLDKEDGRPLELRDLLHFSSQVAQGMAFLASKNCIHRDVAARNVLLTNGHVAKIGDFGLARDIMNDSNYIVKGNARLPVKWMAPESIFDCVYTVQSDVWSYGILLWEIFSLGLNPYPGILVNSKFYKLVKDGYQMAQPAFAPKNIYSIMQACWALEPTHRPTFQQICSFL
The test is described as follows: Proliferation of TEL-CSF1R-BaF3 cells (CCK-8, 72 hours). It is filed as cell-based. The following applies: for GI50: 72 hours incubation, CCK-8. As for the experimental part: as §1
The construction method of the TEL-CSF1R-BaF3 cell line (a cell line stably expressing CSF1R kinase) was as follows: the sequence of human CSF1R kinase region was amplified by PCR and inserted into the MSCV-Puro vector (Clontech) with an N-terminal TEL fragment, and stably transferred into mouse BaF3 cells (purchased from ATCC, USA) by a retroviral method, and IL-3 growth factor was removed, finally a cell line dependent on CSF1R transferred protein was obtained.

[1] abbreviates: M-CSF 50 ng/ml in medium, 72 hours incubation, CCK-8.
Where [2] appears, read: result in words, summary of Table 2.

Read-outs that look alike come from different tables or passages of the source.

Regarding `COc1cc2nccc(Oc3ccc(NC(=O)Cc4ccccc4)cn3)c2cc1OC` [Comparative Example 1, N-(6-((6,7-dimethoxyquinolin-4-yl)oxy)pyridin-3-yl)-2-phenylacetamide, reference compound], the GI50 in the test on M-NSF-60 (72 h) and on TEL-CSF1R-BaF3 was > 10 µM throughout.

`COc1cc2nccc(Oc3ncc(NC(=O)Cc4cccc(C(F)(F)F)c4)cc3Cl)c2cc1OC` [Comparative Example 2, N-(5-chloro-6-((6,7-dimethoxyquinolin-4-yl)oxy)pyridin-3-yl)-2-(3-(trifluoromethyl)phenyl)acetamide, reference compound]: the GI50 in the test with M-NSF-60 (setting [1]) was determined as 7.84 µM; at TEL-CSF1R-BaF3, 2.54 µM.

Consider `COc1cc2nccc(Oc3ccc(C(=O)NCc4cccc(C(F)(F)F)c4)cc3)c2cc1OC` [Comparative Example 3, N-(3-(trifluoromethyl)benzyl)-4-((6,7-dimethoxyquinolin-4-yl)oxy)benzamide, reference compound], for which the values for the GI50 with M-NSF-60 (setting [1]) and at TEL-CSF1R-BaF3 were 2.4 µM and 1.23 µM, respectively.

For the compound `COc1cccc(CC(=O)Nc2ccc(Oc3ncnc4cc(OC)c(OC)cc34)cc2)c1` [Comparative Example 4, N-(4-((6,7-dimethoxyquinazolin-4-yl)oxy)phenyl)-2-(3-methoxyphenyl)acetamide, reference compound], the GI50 is 0.55 µM with M-NSF-60 (setting [1]) and 0.17 µM on TEL-CSF1R-BaF3. For the same compound, in the test on M-NSF-60 (setting [2]), the “inhibitory effect on the proliferation of M-NSF-60” value is listed as “certain inhibitory activity”. On TEL-CSF1R-BaF3 (setting [2]), the “inhibitory effect on the proliferation of TEL-CSF1R-BaF3” value is on record as “certain inhibitory activity”.

As for `COc1cc2nccc(Oc3ccc(NC(=O)Cc4ccc(C)c(C(F)(F)F)c4)cc3)c2cc1OC` [Example 1, N-(4-((6,7-dimethoxyquinolin-4-yl)oxy)phenyl)-2-(4-methyl-3-(trifluoromethyl)phenyl)acetamide], the figures for the GI50 in the test with M-NSF-60 (72 h) and at TEL-CSF1R-BaF3 were 0.009 µM and 0.002 µM, respectively.

Consider `COc1cc2nccc(Oc3ccc(NC(=O)Cc4ccccc4)cc3)c2cc1OC` [Example 3, N-(4-((6,7-dimethoxyquinolin-4-yl)oxy)phenyl)-2-phenylacetamide], for which the GI50 in the test with M-NSF-60 (setting [1]) was found to be 0.1 µM; on TEL-CSF1R-BaF3, 0.012 µM.

Regarding `COc1cc2nccc(Oc3ccc(NC(=O)Cc4ccc(Cl)c(F)c4)cc3)c2cc1OC` [Example 5, N-(4-((6,7-dimethoxyquinolin-4-yl)oxy)phenyl)-2-(4-chloro-3-fluorophenyl)acetamide], the figures for the GI50 in the test with M-NSF-60 (setting [1]) and at TEL-CSF1R-BaF3 were 0.035 µM and 0.001 µM, respectively.

As to `COc1cc2nccc(Oc3ccc(NC(=O)Cc4cccc(C(F)(F)F)c4)c(Cl)c3)c2cc1OC` [Example 6, N-(2-chloro-4-((6,7-dimethoxyquinolin-4-yl)oxy)phenyl)-2-(3-(trifluoromethyl)phenyl)acetamide], the values for the GI50 in the test on M-NSF-60 (setting [1]) and on TEL-CSF1R-BaF3 were 0.06 µM and 0.017 µM, respectively.

In the case of `COc1cc2nccc(Oc3ccc(NC(=O)Cc4ccc(C(F)(F)F)cc4)c(Cl)c3)c2cc1OC` [Example 7, N-(2-chloro-4-((6,7-dimethoxyquinolin-4-yl)oxy)phenyl)-2-(4-(trifluoromethyl)phenyl)acetamide], the GI50 came to 0.03 µM in the test with M-NSF-60 (setting [1]) and 0.009 µM on TEL-CSF1R-BaF3.

Take `COc1cc2nccc(Oc3ccc(NC(=O)Cc4cccc(C(F)(F)F)c4)cc3)c2cc1OC` [Example 8, N-(4-((6,7-dimethoxyquinolin-4-yl)oxy)phenyl)-2-(3-(trifluoromethyl)phenyl)acetamide]: the GI50 in the test with M-NSF-60 (setting [1]) came out at 0.006 µM; at TEL-CSF1R-BaF3, 0.001 µM.

Consider `COc1cc2nccc(Oc3ccc(NC(=O)Cc4ccc(C(F)(F)F)cc4)cc3)c2cc1OC` [Example 9, N-(4-((6,7-dimethoxyquinolin-4-yl)oxy)phenyl)-2-(4-(trifluoromethyl)phenyl)acetamide], for which the values for the GI50 in the test with M-NSF-60 (setting [1]) and on TEL-CSF1R-BaF3 were 0.007 µM and 0.002 µM, respectively.

In the case of `COc1ccc(CC(=O)Nc2ccc(Oc3ccnc4cc(OC)c(OC)cc34)cc2)cc1OC` [Example 10, N-(4-((6,7-dimethoxyquinolin-4-yl)oxy)phenyl)-2-(3,4-dimethoxyphenyl)acetamide], the figures for the GI50 in the test on M-NSF-60 (setting [1]) and on TEL-CSF1R-BaF3 were 0.038 µM and 0.009 µM, respectively.

For the compound `COc1cc2nccc(Oc3ccc(NC(=O)Cc4ccc(C)c(C)c4)cc3)c2cc1OC` [Example 11, N-(4-((6.7-dimethoxyquinolin-4-yl)oxy)phenyl)2-(3,4-dimethylphenyl)acetamide], the GI50 in the test with M-NSF-60 (setting [1]) turned out to be 0.005 µM; on TEL-CSF1R-BaF3 it was 0.001 µM.

For `COc1cc2nccc(Oc3ccc(NC(=O)Cc4ccc(F)c(F)c4)cc3)c2cc1OC` [Example 12, N-(4-((6,7-dimethoxyquinolin-4-yl)oxy)phenyl)-2-(3,4-difluorophenyl)acetamide], the GI50 came to 0.065 µM with M-NSF-60 (setting [1]) and 0.003 µM on TEL-CSF1R-BaF3.

On to `COc1cc2nccc(Oc3ccc(NC(=O)Cc4ccc(F)c(C(F)(F)F)c4)cc3)c2cc1OC` [Example 13, N-(4-((6,7-dimethoxyquinolin-4-yl)oxy)phenyl)-2-(4-fluoro-3-(trifluoromethyl)phenyl)acetamide], for which the values for the GI50 in the test with M-NSF-60 (setting [1]) and on TEL-CSF1R-BaF3 were 0.018 µM and 0.002 µM, respectively.

`COc1cc2nccc(Oc3ccc(NC(=O)Cc4c(F)cccc4F)cc3)c2cc1OC` [Example 14, N-(4-((6,7-dimethoxyquinolin-4-yl)oxy)phenyl)-2-(2,6-difluorophenyl)acetamide]: the figures for the GI50 in the test with M-NSF-60 (setting [1]) and at TEL-CSF1R-BaF3 were 0.26 µM and 0.012 µM, respectively.

As to `COc1cc2nccc(Oc3ccc(NC(=O)Cc4ccc(F)cc4F)cc3)c2cc1OC` [Example 15, N-(4-((6,7-dimethoxyquinolin-4-yl)oxy)phenyl)-2-(2,4-difluorophenyl)acetamide], the GI50 in the test with M-NSF-60 (setting [1]) was found to be 0.051 µM; at TEL-CSF1R-BaF3, 0.003 µM.

As to `COc1cc2nccc(Oc3ccc(NC(=O)Cc4ccc(C)c(F)c4)cc3)c2cc1OC` [Example 16, N-(4-((6,7-dimethoxyquinolin-4-yl)oxy)phenyl)-2-(3-fluoro-4-methylphenyl)acetamide], the GI50 in the test on M-NSF-60 (setting [1]) was found to be 0.033 µM; at TEL-CSF1R-BaF3 it was 0.001 µM.

Turning to `COc1cc2nccc(Oc3ccc(NC(=O)Cc4ccc(Cl)c(Cl)c4)cc3)c2cc1OC` [Example 17, N-(4-((6,7-dimethoxyquinolin-4-yl)oxy)phenyl)-2-(3,4-dichlorophenyl)acetamide], the GI50 in the test with M-NSF-60 (setting [1]) worked out at 0.042 µM; at TEL-CSF1R-BaF3 it was 0.002 µM.

As to `COc1cc2nccc(Oc3ccc(NC(=O)Cc4ccc5c(c4)OCO5)cc3)c2cc1OC` [Example 18, N-(4-((6,7-dimethoxyquinolin-4-yl)oxy)phenyl)-2-(benzo[d][1,3]dioxol-5-yl)acetamide], the GI50 in the test with M-NSF-60 (setting [1]) worked out at 0.062 µM; on TEL-CSF1R-BaF3 it was 0.002 µM.

On to `COc1cc2nccc(Oc3ccc(NC(=O)Cc4ccc5ccccc5c4)cc3)c2cc1OC` [Example 19, N-(4-((6,7-dimethoxyquinolin-4-yl)oxy)phenyl)-2-(naphth-2-yl)acetamide], for which the GI50 in the test with M-NSF-60 (setting [1]) worked out at 0.074 µM; on TEL-CSF1R-BaF3, 0.0008 µM.

Take `COc1cc2nccc(Oc3ccc(NC(=O)Cc4cccc(F)c4)cc3)c2cc1OC` [Example 20, N-(4-((6,7-dimethoxyquinolin-4-yl)oxy)phenyl)-2-(3-fluorophenyl)acetamide]: the results for the GI50 in the test with M-NSF-60 (setting [1]) and at TEL-CSF1R-BaF3 were 0.13 µM and 0.006 µM, respectively.

Consider `COc1cc2nccc(Oc3ccc(NC(=O)Cc4ccc(Cl)c(C(F)(F)F)c4)c(Cl)c3)c2cc1OC` [Example 23, N-(2-chloro-4-((6,7-dimethoxyquinolin-4-yl)oxy)phenyl)-2-(4-chloro-3-(trifluoromethyl)phenyl)acetamide], for which the figures for the GI50 in the test with M-NSF-60 (setting [1]) and on TEL-CSF1R-BaF3 were 0.061 µM and 0.008 µM, respectively.

As to `COc1cc2nccc(Oc3ccc(NC(=O)Cc4ccc(Cl)c(C(F)(F)F)c4)c(F)c3)c2cc1OC` [Example 24, N-(2-fluoro-4-((6,7-dimethoxyquinolin-4-yl)oxy)phenyl)-2-(4-chloro-3-(trifluoromethyl)phenyl)acetamide], the results for the GI50 in the test with M-NSF-60 (setting [1]) and on TEL-CSF1R-BaF3 were 0.024 µM and 0.002 µM, respectively.

On to `COc1cc2nccc(Oc3ccc(NC(=O)Cc4ccc(Cl)c(C(F)(F)F)c4)cc3F)c2cc1OC` [Example 25, N-(3-fluoro-4-((6,7-dimethoxyquinolin-4-yl)oxy)phenyl)-2-(4-chloro-3-(trifluoromethyl)phenyl)acetamide], for which the GI50 is 0.05 µM with M-NSF-60 (setting [1]) and 0.003 µM on TEL-CSF1R-BaF3.

As to `COc1cc2nccc(Oc3ccc(NC(=O)NCCCN4CCOCC4)cc3)c2cc1OC` [Example 28, 1-(4-((6,7-dimethoxyquinolin-4-yl)oxy)phenyl)-3-(3-morpholinopropyl)urea], the GI50 on TEL-CSF1R-BaF3 was 0.012 µM.

`COc1cc2nccc(Oc3ccc(NC(=O)NCCCN4CCN(C)CC4)cc3)c2cc1OC` [Example 29, 1-(4-((6,7-dimethoxyquinolin-4-yl)oxy)phenyl)-3-(3-(4-methylpiperazin-1-yl)propyl)urea] yielded a GI50 on TEL-CSF1R-BaF3 of 0.011 µM.
